Laboratory results from patent US12013398B2, “Compositions and methods for treatment of invasive cancers” (The George Washington University, priority 2021, dated 2024).
“Also recorded” adds a separate entry of the source.

Key:
Type in all cases: cell-based
DCIS.com cells [1] = experiment: 2D hydrogel matrix-based invasion assay; settings: crowded DCIS.com cells treated with TSA vs vehicle
Text: FIGS. 6A-6G depict images illustrating 2D hydrogel-based invasion assays. […] Percent (%) invading cells was calculating by dividing this value by the total number of spots. […] Scale bar=100 μm (FIGS. 6B-6E) and 10 μm (FIGS. 6F-6G).
To compare the invasive potential of live cells between different treatment groups, exemplary methods herein established a hydrogel matrix-based invasion assay (FIG. 6A). This assay was used to quantify the invasive cell fraction as a percentage of the total, based on fluorescence imaging results (FIGS. 6B-6E). Since cell stiffness is modulated by the stiffness of the surroundings [the values for normal breast versus DCIS cells are known to be ˜0.1 versus ˜10 kPa], the hydrogel matrix could be stiffness-controlled within the range specified above, as confirmed by nanoindenter measurements.
(§1) Also assessed were two independent possibilities for crowding-mediated increased invasiveness: YAP-association and cell cycle arrest (high-density cells are subject to G1 arrest).

DCIS.com cells [2] = experiment: Cell cycle arrest in crowded DCIS.com cells; settings: crowded DCIS cells treated with TSA vs vehicle
Text: FIGS. 11A-11D depict images and graphs illustrating independent possibilities for crowding-mediated increased invasiveness. […] FIGS. 11C-11D show images of DCIS.com cell invasiveness after treatment with vehicle or TSA (FIG. 11C) and the percentage of invasive cells per treatment group (FIG. 11D).
as §1

ATP1a1 = molecular target: T1, ATP1a1 (Homo sapiens, UniProt P05023); experiment: Immunofluorescence imaging of plasma membrane ATP1A1 localization in overconfluent DCIS.com cells; settings: OC DCIS.com cells; 20 nM lithium bicarbonate or 100 nM ouabain, 24 hours; IF images
T1 construct: endogenous in cells; host or cells: MCF10DCIS.com (DCIS.com) cells, overconfluent
Text: FIGS. 4A-4B depict images illustrating ion channel enrichment in DCIS plasma membranes. […] Transferrin receptor (TfR) distribution was insensitive to cell crowding. IF images. […] Scale bar=10 μm.
Crowding-induced cell volume changes typically occur under isotonic conditions and are accompanied by the efflux of intracellular osmolytes through ion channels. Methods herein assessed if ion channel activities were altered when cells are crowded.

| Structure (SMILES) | invasiveness of DCIS.com cells (percentage of invasive cells) (DCIS.com cells [1]) | cell cycle arrest (DCIS.com cells [2]) | PM ATP1a1 localization / PM abundance of ion channels (ATP1a1) |
| --- | --- | --- | --- |
| CC(/C=C/C(=O)NO)=C\[C@@H](C)C(=O)c1ccc(N(C)C)cc1 [Trichostatin A] | did not decrease the invasiveness | reversed the cell cycle arrest | – |
| O=C([O-])O.[Li+] [lithium bicarbonate] | – | – | the perturbation was less obvious |
| C[C@@H]1O[C@@H](O[C@H]2C[C@@H](O)[C@]3(CO)[C@H]4[C@H](O)C[C@]5(C)[C@@H](C6=CC(=O)OC6)CC[C@]5(O)[C@@H]4CC[C@]3(O)C2)[C@H](O)[C@H](O)[C@H]1O [ouabain] | – | – | the PM abundance of ion channels was perturbed; also recorded: perturbed PM ATP1a1 localization |
